Data reported in PubChem BioAssay AID2060508 (Molecular Pharmacology Branch, DTP, NCI, 2025).

System: 454973-116-R2-J3-PDC spheroids, viability, % test/control
Assay: Anticancer human tumor 454973-116-R2-J3-PDC patient-derived pancreatic carcinoma cell line growth inhibition [GQUAD]
Conditions: spheroids with HUVEC and MSC; for IC50: curve of first compound; for viability, T/C: stronger effect = lower value; active means viability on the fitted dose curve at most 10% of control; inactive means the rest
In short: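 Viability of tumor cells grown as complex spheroids with endothelial and stromal cells, exposed to drug combinations. Top concentration at or near clinical Cmax (else 10 microM), diluted in half-log increments.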

[1] = second compound 0.0316 µM, first compound 0.0316 µM
[2] = second compound 0.0316 µM, first compound 0.1 µM
[3] = second compound 0.0316 µM, first compound 0.316 µM
[4] = second compound 0.0316 µM, first compound 1 µM
[5] = second compound 0.0316 µM, first compound 3.16 µM
[6] = second compound 0.0316 µM, first compound 10 µM
[7] = second compound 0.1 µM, first compound 0.0316 µM
[8] = second compound 0.1 µM, first compound 0.1 µM
[9] = second compound 0.1 µM, first compound 0.316 µM
[10] = second compound 0.1 µM, first compound 1 µM
[11] = second compound 0.1 µM, first compound 3.16 µM
[12] = second compound 0.1 µM, first compound 10 µM
[13] = second compound 0.316 µM, first compound 0.0316 µM
[14] = second compound 0.316 µM, first compound 0.1 µM
[15] = second compound 0.316 µM, first compound 0.316 µM
[16] = second compound 0.316 µM, first compound 1 µM
[17] = second compound 0.316 µM, first compound 3.16 µM
[18] = second compound 0.316 µM, first compound 10 µM
[19] = second compound 1 µM, first compound 0.0316 µM
[20] = second compound 1 µM, first compound 0.1 µM
[21] = second compound 1 µM, first compound 0.316 µM
[22] = second compound 1 µM, first compound 1 µM
[23] = second compound 1 µM, first compound 3.16 µM
[24] = second compound 1 µM, first compound 10 µM
[25] = second compound 3.16 µM, first compound 0.0316 µM
[26] = second compound 3.16 µM, first compound 0.1 µM
[27] = second compound 3.16 µM, first compound 0.316 µM
[28] = second compound 3.16 µM, first compound 1 µM
[29] = second compound 3.16 µM, first compound 3.16 µM
[30] = second compound 3.16 µM, first compound 10 µM
[31] = second compound 10 µM, first compound 0.0316 µM
[32] = second compound 10 µM, first compound 0.1 µM
[33] = second compound 10 µM, first compound 0.316 µM
[34] = second compound 10 µM, first compound 1 µM
[35] = second compound 10 µM, first compound 3.16 µM
[36] = second compound 10 µM, first compound 10 µM
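Further: spheroids exposed to compounds for seven days.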
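Wherever viability, T/C is given: 100% = DMSO vehicle control viability.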

CCCS(=O)(=O)Nc1ccc(F)c(C(=O)c2c[nH]c3ncc(-c4ccc(Cl)cc4)cc23)c1F + Cc1[nH]c2ccc(F)cc2c1-c1nc2c3cccnc3c3ncccc3c2[nH]1
active: viability, T/C [6] 8.25% | viability, T/C [12] 8.04% | viability, T/C [18] 9.5% | viability, T/C [24] 8.32%
6450 nM: IC50 (second compound 3.16 µM)
6400 nM: IC50 (second compound 10 µM)
5970 nM: IC50 (second compound 0.0316 µM)
5650 nM: IC50 (second compound 0.1 µM)
6300 nM: IC50 (second compound 1 µM)
6270 nM: IC50 (second compound 0.316 µM)
inactive: viability, T/C [1] 114% | viability, T/C [2] 117% | viability, T/C [3] 127% | viability, T/C [4] 116% | viability, T/C [5] 101% | viability, T/C [7] 112% | viability, T/C [8] 118% | viability, T/C [9] 113% | viability, T/C [10] 118% | viability, T/C [11] 92.7% | viability, T/C [13] 112% | viability, T/C [14] 107% | viability, T/C [15] 102% | viability, T/C [16] 113% | viability, T/C [17] 113% | viability, T/C [19] 104% | viability, T/C [20] 102% | viability, T/C [21] 114% | viability, T/C [22] 128% | viability, T/C [23] 115% | viability, T/C [25] 109% | viability, T/C [26] 115% | viability, T/C [27] 114% | viability, T/C [28] 98.6% | viability, T/C [29] 112% | viability, T/C [30] 13.3% | viability, T/C [31] 107% | viability, T/C [32] 101% | viability, T/C [33] 116% | viability, T/C [34] 110% | viability, T/C [35] 106% | viability, T/C [36] 14.4%

Cn1ncnc1[C@H]1c2n[nH]c(=O)c3cc(F)cc(c23)N[C@@H]1c1ccc(F)cc1 + Cc1[nH]c2ccc(F)cc2c1-c1nc2c3cccnc3c3ncccc3c2[nH]1
> 316 nM: IC50 (second compound 0.0316 µM) | IC50 (second compound 0.1 µM) | IC50 (second compound 0.316 µM) | IC50 (second compound 1 µM) | IC50 (second compound 3.16 µM) | IC50 (second compound 10 µM)
inactive: viability, T/C (second compound 0.0316 µM, first compound 0.000999 µM) 115% | viability, T/C (second compound 0.0316 µM, first compound 0.00316 µM) 95.3% | viability, T/C (second compound 0.0316 µM, first compound 0.00999 µM) 101% | viability, T/C [1] 87.7% | viability, T/C (second compound 0.0316 µM, first compound 0.0999 µM) 97.4% | viability, T/C [3] 84% | viability, T/C (second compound 0.1 µM, first compound 0.000999 µM) 93.6% | viability, T/C (second compound 0.1 µM, first compound 0.00316 µM) 97.6% | viability, T/C (second compound 0.1 µM, first compound 0.00999 µM) 94.4% | viability, T/C [7] 104% | viability, T/C (second compound 0.1 µM, first compound 0.0999 µM) 86.1% | viability, T/C [9] 77.6% | viability, T/C (second compound 0.316 µM, first compound 0.000999 µM) 101% | viability, T/C (second compound 0.316 µM, first compound 0.00316 µM) 99.6% | viability, T/C (second compound 0.316 µM, first compound 0.00999 µM) 91.9% | viability, T/C [13] 92.7% | viability, T/C (second compound 0.316 µM, first compound 0.0999 µM) 90.7% | viability, T/C [15] 83.8% | viability, T/C (second compound 1 µM, first compound 0.000999 µM) 107% | viability, T/C (second compound 1 µM, first compound 0.00316 µM) 104% | viability, T/C (second compound 1 µM, first compound 0.00999 µM) 91.6% | viability, T/C [19] 98% | viability, T/C (second compound 1 µM, first compound 0.0999 µM) 83.5% | viability, T/C [21] 81% | viability, T/C (second compound 3.16 µM, first compound 0.000999 µM) 93.9% | viability, T/C (second compound 3.16 µM, first compound 0.00316 µM) 98.5% | viability, T/C (second compound 3.16 µM, first compound 0.00999 µM) 92.1% | viability, T/C [25] 83% | viability, T/C (second compound 3.16 µM, first compound 0.0999 µM) 82.3% | viability, T/C [27] 82% | viability, T/C (second compound 10 µM, first compound 0.000999 µM) 87.4% | viability, T/C (second compound 10 µM, first compound 0.00316 µM) 100% | viability, T/C (second compound 10 µM, first compound 0.00999 µM) 93% | viability, T/C [31] 78.4% | viability, T/C (second compound 10 µM, first compound 0.0999 µM) 82.4% | viability, T/C [33] 76.1%

O=c1[nH]cc(F)c(=O)[nH]1 + CN(C)c1ccc(Nc2c3ccc(NC(=O)CCN4CCCC4)cc3nc3cc(NC(=O)CCN4CCCC4)ccc23)cc1
2060 nM: IC50 (second compound 0.1 µM)
2120 nM: IC50 (second compound 0.0316 µM)
inactive: viability, T/C [1] 114% | viability, T/C [2] 98.1% | viability, T/C [3] 108% | viability, T/C [4] 84.2% | viability, T/C [5] 32.1% | viability, T/C [6] 30.2% | viability, T/C [7] 106% | viability, T/C [8] 95.6% | viability, T/C [9] 103% | viability, T/C [10] 83.4% | viability, T/C [11] 28.5% | viability, T/C [12] 31.7% | viability, T/C [13] 102% | viability, T/C [14] 103% | viability, T/C [15] 96.8% | viability, T/C [16] 81.1% | viability, T/C [17] 35.1% | viability, T/C [18] 38.6% | viability, T/C [19] 92.5% | viability, T/C [20] 99% | viability, T/C [21] 89.2% | viability, T/C [22] 56.9% | viability, T/C [23] 35.7% | viability, T/C [24] 35.1% | viability, T/C [25] 89.5% | viability, T/C [26] 71.5% | viability, T/C [27] 95.7% | viability, T/C [28] 59.9% | viability, T/C [29] 32.2% | viability, T/C [30] 37.6% | viability, T/C [31] 78.9% | viability, T/C [32] 74.2% | viability, T/C [33] 78% | viability, T/C [34] 64.8% | viability, T/C [35] 38.7% | viability, T/C [36] 36%
1580 nM: IC50 (second compound 3.16 µM)
1920 nM: IC50 (second compound 10 µM)
1460 nM: IC50 (second compound 1 µM)
2250 nM: IC50 (second compound 0.316 µM)
